Data on 7 compounds can be found in PMC5111108, “An insecticide resistance-breaking mosquitocide targeting inward rectifier potassium channels in vectors of Zika virus and malaria” (Scientific Reports, 2016).

In the data set the target is T1, AnKir1 (Anopheles gambiae, UniProt A0A075M2J8).
T1 sequence (A0A075M2J8 1-555): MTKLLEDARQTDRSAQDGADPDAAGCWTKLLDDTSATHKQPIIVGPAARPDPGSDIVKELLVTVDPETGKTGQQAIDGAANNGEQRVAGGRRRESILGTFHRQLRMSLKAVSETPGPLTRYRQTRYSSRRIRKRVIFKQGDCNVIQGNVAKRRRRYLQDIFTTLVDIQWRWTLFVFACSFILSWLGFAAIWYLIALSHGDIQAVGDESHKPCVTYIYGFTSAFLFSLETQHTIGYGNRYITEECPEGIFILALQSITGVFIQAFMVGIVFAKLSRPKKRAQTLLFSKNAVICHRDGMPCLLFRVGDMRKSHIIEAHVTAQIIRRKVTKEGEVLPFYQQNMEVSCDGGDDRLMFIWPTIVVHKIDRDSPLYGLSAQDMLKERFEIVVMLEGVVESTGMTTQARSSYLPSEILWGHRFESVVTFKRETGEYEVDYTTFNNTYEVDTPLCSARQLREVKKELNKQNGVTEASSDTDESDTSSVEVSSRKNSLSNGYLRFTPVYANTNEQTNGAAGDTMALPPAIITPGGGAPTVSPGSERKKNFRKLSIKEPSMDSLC
The data set can be described thus: Tl+ flux assay in T-REx-HEK293 cells expressing AnKir1. The data set is classed as cell-based. How it is done:
Tl^+ flux assays were performed essentially as described previously. Briefly, stably transfected T-Rex-HEK-293 cells expressing AnKir1 channels were cultured overnight in 384-well plates (20,000 cells/20 μL/well black-walled, clear-bottomed BD PureCoat amine-coated plates (BD, Bedford, MA) with a plating media containing DMEM, 10% dialyzed FBS and 1 μg/mL tetracycline. Approximately twenty-four hours after cell plating, the cell culture medium was replaced with a dye-loading solution containing assay buffer (Hanks Balanced Salt Solution with 20 mM HEPES, pH 7.3), 0.01% (w/v) Pluronic F-127 (Life Technologies, Carlsbad, CA), and 1.2 μM of the thallium-sensitive dye Thallos-AM (TEFlabs, Austin, TX). Following 1 hr incubation at room temperature, the dye-loading solution was washed from the plates and replaced with 20 μL/well of assay buffer.
Tl+ flux assay development
Tl+ flux assays were performed essentiall y as described previousl y (1). Briefl y, stabl y transfect ed T-Rex -HEK- 293- AnKir1 cells were cultured overnight in 384-well plates in media containing DMEM, 10% dial yz ed FBS and 1μg/ m L tetrac ycline to induce channel expression
(Fig. S1A). The next day, the cell culture medium was replaced with a dye-loading solution containing assay buffer (Hanks Balanced Salt Solution with 20 mM HEPES, pH 7.3), 0.01% (w/v) Pluronic F-127 (Li fe Technologies, Carlsbad, CA), and 1.2 μM of the thallium-sensitive dye Thallos-AM (TEFl abs, Austin, TX). Following 1 hr incubation at room temperature, the d ye-loading solution was washed from the plates and replaced with 20 μ L/well of assa y buffer. The plates were transferred t o a Ham amatsu Functional Drug Screening System 6000 (FDSS6000; Hamamatsu, Tokyo, J apan) where 20 μ L/well of test compounds in assay buffer (as prepared below) were added and allowed to incubate with the cells for 20 min. After the incubation period, a baseline recordi ng was collected at 1 Hz for 10 s (excitation 470 ± 20 nm, emission 540 ± 30 nm) followed by a t hallium stimulus buffer addition (10 μL/well) and data collection for an additional 4 min. The Tl + stimulus buffer contains in (mM) 125 NaHCO3, 1.8 CaSO4, 1 MgSO4, 5 glucose, 12 Tl2SO4, 10 HEPES, pH 7.4. For Tl + flux assays on Kir2.x, Kir4.1 and Kir6.2/SUR1 ex pressing cells, the Tl+ stimulus buffer contained 1.8 mM Tl 2SO4. To ensure the small-molecule vehicle DMSO had no direct effect on An Ki r1-dependent Tl+ flux, the assa y’s tolerance to different doses of DMSO was evaluated (Fig. S1B). The robustness and reproducibility of the assay was determined by comparing Tl+ flux through tetracycline-induced and tetracycline-uninduced cells (Fig. S1C). The Z’ value was calculated as described previously (1 ), using the […]
Z’ = 1- (3SD p + 3SD n)/ |meanp + meann | where SD is standard deviation, p and n are control and uninduced flux values respectivel y.
To compare the effect of DMSO on An Kir1-mediated Tl+ flux, a one-way ANOVA was performed with a Tuke y’s multiple comparison test. Prism software (GraphPad Software) was used to generate CRC from Tl+ fl ux ..Half-inhibition concentration (IC50) values were calculated from fits using a four parameter logistic equation.
High-throughput screeni ng
The test compounds were transferred to daughter pol yprop ylene 384-well plates (G reiner Bio-One, Monroe, NC) using an Echo555 liquid handler (Labcyte, Sunnyvale, CA), and then diluted into assay buffer to generat e a 2X stock in 0.6% DMSO (0.3% final). For Tl+ flux assays on Kir6.2/SUR1 expressing cells, test compounds were diluted in assay buffer containing diazoxide (250 μM final) to induce channel activation. Concentration- response curves (CRCs) were gener ated b y screening compounds at 3-fold dilution series (1 nM - 30 μM).
Tl+ flux data were anal yzed as previousl y d escri bed (2, 3) using a combination of Excel (Microsoft Corp, Redmond, WA) with XLfit add-in (IDBS, Guildford, Surre y, UK), Ori ginPro […]

Where [1] appears, read: Tl+ flux, Tables S2/S3 and supplemental text, read-out: AnKir1 IC50.
The mark [2] stands for this setting: Tl+ flux assay, read-out: AnKir1 IC50 (Tl+ flux).

Entries after “also recorded” stand apart in the source; their conditions may differ. Read-outs that look alike come from different tables or passages of the source. Some results are limits rather than exact numbers.

As a reminder, the IC50 is the concentration needed to halve the response being measured. On to `O=C1CCCc2c1ccn2CC(=O)N1CCCc2ccccc21` [Compound 4], for which, under setting [1], the IC50 worked out at 12.1 µM. Regarding `O=C(Cn1nc(C(F)(F)F)c2c1CCCC2)N1CCCC(c2ccccc2)C1` (stereo not shown) [Compound 12], under setting [1], the IC50 amounted to 5.6 µM.

As for `O=C(Cn1nc(C(F)(F)F)c2c1CCCC2)N1CCCC2CCCCC21` (stereo not shown) [Compound 9], under setting [1], the IC50 stood at 6.7 µM. Usually inhibition stands for the percentage by which the read-out fell short of the control. As to `O=C(Cn1nc(C(F)(F)F)c2c1CCCC2)NC1CCC1` [VU937], the “AnKir1 IC50” value (Tl+ flux, Tables S2/S3 and supplemental text, listed as 18) was “not tolerated; also recorded: inactive”. In addition, the inhibition at 30 µM (at 30 μM, read-out: inhibition of AnKir1-mediated Tl+ flux) was < 50%. For the compound `O=C(Cn1nc(C(F)(F)F)c2c1CCCC2)N1CCCc2ccccc21` [VU041, 1-(3,4-dihydroquinolin-1(2H)-yl)-2-(3-(trifluoromethyl)-4,5,6,7-tetrahydro-1H-indazol-1-yl)ethan-1-one], the “Hill-coefficient (Tl+ flux, AnKir1)” value (Tl+ flux CRC) is 1.1. In addition, the half-maximal inhibitory concentration (IC50) by setting is: under setting [2], 2.5 µM; under setting [1], 2.3 µM. Consider `O=C(Cn1ncc2c1CCOC2)N1CCCc2ccccc21` [VU730], for which the IC50 under setting [2] was determined as 2.4 µM. Regarding `CC1CC(C)CN(C(=O)Cn2nc(C(F)(F)F)c3c2CCCC3)C1` (stereo not shown) [Compound 13], under setting [1], the half-inhibitory concentration (IC50) stood at 4.5 µM.
